Assay results taken from US4499106A, “Lipolytic composition and method of treating obesity” (Boehringer Ingelheim KG, priority 1983, dated 1985).
Entries after “also recorded” stand apart in the source; their conditions may differ.

Columns and labels:
heart (heart rate) = test: Heart rate, anesthetized dog (maximum percentage change vs control); format: in vivo; settings: for Heart Rate Δ%: maximum change; for cardiovascular effects compared with Me 693: vs Me 693, in words
Description: (§1) If the effects on the heart (heart rate), circulation (diastolic blood pressure, peripheral vasodilation) and bronchi, on the one hand, and the increase in the unesterified fatty acids in the blood after the administration of Me 693, on the other hand, are compared with the effects of isoprenaline and fenoterol, it is clear that the cardiovascular and bronchospasmolytic effects are much greater after administration of the comparison substances than with the Me 693, whereas the reverse is true of the lipolytic effects.
(§2) Metabolic and cardiovascular effects and bronchospasmolytic effects of Me
(§3) isoprenaline and fenoterol in animals of various types. The table gives
(§4) maximum percentage changes compared with control values.

[1] = system: heart rate and diastolic blood pressure; test: Cardiovascular effects of oral administration to three conscious dogs (heart rate, diastolic blood pressure); format: in vivo, dog; settings: for Diastolic Blood Pressure Δ% / Heart Rate Δ%: maximum change
Method: (§5) A dose of only 0.1 mg/kg of Me 693 gives virtually a 100% increase in the unesterified fatty acids in the blood while the heart rate and the diastolic blood pressure are unaffected.
(§6) Metabolic and cardiovascular effects of Me 693 administered
(§7) orally to three conscious dogs. The table gives the maximum
(§8) percentage changes compared with the control values.

[2] = system: unesterified fatty acids in the blood; test: Metabolic effects of oral administration to three conscious dogs (unesterified fatty acids, triglycerides, lactate); format: in vivo, dog; settings: for Triglycerides Δ% / Unesterified Fatty Acids Δ%: maximum change
Method: as §5, §6, §7, §8

[3] = system: lipolysis and glycogenolysis; test: Summary of animal experiments: lipolytic and glycogenolytic (lactate) activity; format: in vivo; settings: in words
Description: To summarize, the animal experiments with Me 693 have given the following results: […]

[4] = system: metabolism (development and release of heat); test: Calorimetric effects after intravenous administration to rabbits; format: in vivo, rabbit; settings: 0.5 mg/kg intravenously
[5] = system: unesterified fatty acids in the blood plasma; test: Metabolic effects in blood plasma of fed rats: unesterified fatty acids; format: in vivo, rat; settings: for Unesterified Fatty Acids Δ%: blood plasma
Description: (§9) Metabolic effects in the blood plasma of fed rats.
(§10) μmol/l (unesterified fatty acids) and mmol/l (lactate).
(§11) Averages ± S.E.M. N of the treated groups = 5-6.

[6] = system: unesterified fatty acids in the blood; test: Unesterified fatty acids, conscious rat (maximum percentage change vs control); format: in vivo
Description: as §1, §2, §3, §4

[7] = system: lactate in the blood plasma; test: Metabolic effects in blood plasma of fed rats: lactate; format: in vivo, rat; settings: for Lactate Δ%: blood plasma; for lactacidemia compared with Me 693: vs Me 693, in words
Description: as §9, §10, §11

[8] = system: circulation (peripheral vasodilation); test: Peripheral vasodilation, anesthetized dog (maximum percentage change vs control); format: in vivo
Description: as §1, §2, §3, §4

[9] = system: circulation (diastolic blood pressure); test: Diastolic blood pressure, anesthetized dog (maximum percentage change vs control); format: in vivo
Description: as §1, §2, §3, §4

bronchi (ACh spasm) = test: Bronchospasmolysis, anesthetized guinea pig (inhibition of ACh spasm); format: in vivo; settings: for bronchospasmolytic effects compared with Me 693: vs Me 693, in words
Description: as §1, §2, §3, §4

## CC(COc1ccccc1)NCC(O)c1ccc(O)c(NS(=O)(=O)N(C)C)c1 (stereo not shown) [Me 693, 1-(4-hydroxy-3-dimethylamino-sulfonamidophenyl)-1-hydroxy-2-(1-phenoxy-isopropylamino)ethane]
Heart (heart rate); 10 μg/kg i.v.
  Heart Rate Δ%: +8%
Heart (heart rate); 20 μg/kg i.v.
  Heart Rate Δ%: +5%
[1]; 0.1 mg/kg oral
  heart rate and diastolic blood pressure (in words): unaffected
  Diastolic Blood Pressure Δ%: 0%
  Heart Rate Δ%: 0%
[1]; 0.3 mg/kg oral
  Diastolic Blood Pressure Δ%: -15%
  Heart Rate Δ%: +36%
[1]; 1.0 mg/kg oral
  Diastolic Blood Pressure Δ%: -26%
  Heart Rate Δ%: +95%
[1]; 0.3 and 1 mg/kg oral
  blood pressure (in words): reductions in blood pressure
  heart rate (in words): dose-dependent increases in heart rate
[2]; 0.1 mg/kg oral
  Triglycerides Δ%: +18%
[2]; 0.3 mg/kg oral
  Triglycerides Δ%: +10%
  Unesterified Fatty Acids Δ%: +95%
[2]; 1.0 mg/kg oral
  Triglycerides Δ%: +37%
  Unesterified Fatty Acids Δ%: +112%
[2]; 0.3 and 1 mg/kg oral
  unesterified fatty acids (in words): increased still further to a high level
[3]; animal experiments
  differentiation between lipolytic and glycogenolytic activities: Extreme differentiation between the lipolytic and glycogenolytic activities
  glycogenolytic effect: virtually negligible glycogenolytic activity; also recorded: does not have the glycogenolytic effect
  lipolytic effect: Strong lipolytic activity; also recorded: particularly long-lasting selective lipolytic effect
[3]
  blood lactate: no changes are observed in blood lactate
[4]
  core temperatures: higher core temperatures
  development and release of heat: increased significantly
  heart rate and ear temperature: slight increase in heart rate and ear temperature
  oxygen consumption: increased oxygen consumption
  respiratory quotient: reduction in the respiratory quotient
[5]; 0.1 mg/kg s.c.
  Unesterified Fatty Acids Δ%: +34%
[5]; 1 mg/kg oral
  Unesterified Fatty Acids Δ%: +63%
[5]; 1.0 mg/kg s.c.
  Unesterified Fatty Acids Δ%: +190%
[5]; identical dosage, vs isoprenaline and fenoterol, in words
  increase in unesterified fatty acids in the blood vs comparison substances: much higher increase
[6]; 0.1 mg/kg s.c.
  Unesterified Fatty Acids Δ%: +34%
[6]; 1.0 mg/kg s.c.
  Unesterified Fatty Acids Δ%: +190%
[7]; 0.1 mg/kg s.c.
  Lactate Δ%: 0%
[7]; 1.0 mg/kg s.c.
  Lactate Δ%: +34%
[8]; 10 μg/kg i.a.
  Peripheral Vasodilation Δ%: -14%
[8]; 30 μg/kg i.a.
  Peripheral Vasodilation Δ%: -15%
[9]; 10 μg/kg i.v.
  Diastolic Blood Pressure Δ%: -24%
[9]; 20 μg/kg i.v.
  Diastolic Blood Pressure Δ%: -23%
Bronchi (ACh spasm); 100 μg/kg i.v.
  Bronchospasmolysis, % Inhibition of ACh spasm: 0-2%

## CC(Cc1ccc(O)cc1)NCC(O)c1cc(O)cc(O)c1 (stereo not shown) [Fenoterol, fenoterol]
Heart (heart rate); 0.1 μg/kg i.v.
  Heart Rate Δ%: +3%
Heart (heart rate); 1 μg/kg i.v.
  Heart Rate Δ%: +27%
Heart (heart rate); 10 μg/kg i.v.
  Heart Rate Δ%: +50%
Heart (heart rate)
  cardiovascular effects compared with Me 693: much greater
[5]; 0.1 mg/kg s.c.
  Unesterified Fatty Acids Δ%: +18%
[5]; 1.0 mg/kg s.c.
  Unesterified Fatty Acids Δ%: +30%
[6]; 0.1 mg/kg s.c.
  Unesterified Fatty Acids Δ%: +18%
[6]; 1.0 mg/kg s.c.
  Unesterified Fatty Acids Δ%: +30%
[7]; 0.1 mg/kg s.c.
  Lactate Δ%: +33%
[7]; 1.0 mg/kg s.c.
  Lactate Δ%: +109%
[7]
  lactacidemia compared with Me 693: significantly greater
[8]; 1 μg/kg i.a.
  Peripheral Vasodilation Δ%: -20%
[8]; 3 μg/kg i.a.
  Peripheral Vasodilation Δ%: -28%
[9]; 0.1 μg/kg i.v.
  Diastolic Blood Pressure Δ%: -13%
[9]; 1 μg/kg i.v.
  Diastolic Blood Pressure Δ%: -33%
[9]; 10 μg/kg i.v.
  Diastolic Blood Pressure Δ%: -54%
Bronchi (ACh spasm); 10 μg/kg i.v.
  Bronchospasmolysis, % Inhibition of ACh spasm: 67-100%
Bronchi (ACh spasm)
  bronchospasmolytic effects compared with Me 693: much greater

## CC(C)NCC(O)c1ccc(O)c(O)c1 (stereo not shown) [Isoprenaline, isoprenaline]
Heart (heart rate); 0.1 μg/kg i.v.
  Heart Rate Δ%: +18%
Heart (heart rate); 1 μg/kg i.v.
  Heart Rate Δ%: +37%
Heart (heart rate); 10 μg/kg i.v.
  Heart Rate Δ%: +56%
Heart (heart rate)
  cardiovascular effects compared with Me 693: much greater
[5]; 0.1 mg/kg s.c.
  Unesterified Fatty Acids Δ%: +15%
[5]; 1.0 mg/kg s.c.
  Unesterified Fatty Acids Δ%: +27%
[6]; 0.1 mg/kg s.c.
  Unesterified Fatty Acids Δ%: +15%
[6]; 1.0 mg/kg s.c.
  Unesterified Fatty Acids Δ%: +27%
[7]; 0.1 mg/kg s.c.
  Lactate Δ%: +112%
[7]; 1.0 mg/kg s.c.
  Lactate Δ%: +148%
[7]
  lactacidemia compared with Me 693: significantly greater
[8]; 0.001 μg/kg i.a. (so in the source)
  Peripheral Vasodilation Δ%: -28%
[8]; 0.003 μg/kg i.a.
  Peripheral Vasodilation Δ%: -24%
[8]; 0.03 μg/kg i.a.
  Peripheral Vasodilation Δ%: -33%
[9]; 0.1 μg/kg i.v.
  Diastolic Blood Pressure Δ%: -40%
[9]; 1 μg/kg i.v.
  Diastolic Blood Pressure Δ%: -62%
[9]; 10 μg/kg i.v.
  Diastolic Blood Pressure Δ%: -71%
Bronchi (ACh spasm); 10 μg/kg i.v.
  Bronchospasmolysis, % Inhibition of ACh spasm: 76-94%
Bronchi (ACh spasm)
  bronchospasmolytic effects compared with Me 693: much greater
